In patent US12371454B2, “Cyclic peptide compound having Kras inhibitory action” (priority 2019, dated 2025):
Starred links: 1 amine or outer side, 2 acyl side, 3 side chain; linkers in the order of their positions; H or OH if unused. Positions of bridges follow the written chain, without caps; N, C: chain ends. Non-standard residues stand in square brackets, D forms with d. Residues, ends and D or L forms follow the SMILES beside them. *: point of attachment. hPhe(3,5-F2-4-CF3) = N[C@@H](CCc1cc(F)c(C(F)(F)F)c(F)c1)C(=O)O; hPhe(3-Cl-4-CF3) = N[C@@H](CCc1ccc(C(F)(F)F)c(Cl)c1)C(=O)O; hPhe(3-F,4-CF3) = N[C@@H](CCc1ccc(C(F)(F)F)c(F)c1)C(=O)O; NMePhe(4-CF3) = CN[C@@H](Cc1ccc(C(F)(F)F)cc1)C(=O)O; NMePhe(4-Me) = CN[C@@H](Cc1ccc(C)cc1)C(=O)O; NMeNle(6-CHF2) = CN[C@@H](CCCCC(F)F)C(=O)O; NMePhe(4-I) = CN[C@@H](Cc1ccc(I)cc1)C(=O)O; NMedβ3hAla = C[C@H](CC(=O)[*:2])N(C)[*:1]; NMeGly(cPent) = CN[C@H](C(=O)O)C1CCCC1; oXylylene = c1ccc(C[*:2])c(C[*:1])c1; NMe3Pal = CN[C@@H](Cc1cccnc1)C(=O)O; NMeCha = CN[C@@H](CC1CCCCC1)C(=O)O; cisHyp = O=C(O)[C@@H]1C[C@H](O)CN1; Hyp = O=C(O)[C@@H]1C[C@@H](O)CN1; NMeChg = CN[C@H](C(=O)O)C1CCCCC1; NMeI = CC[C@H](C)[C@H](NC)C(=O)O; NMeD = CN[C@@H](CC(=O)O)C(=O)O; NMeHpra = C#CCC[C@H](NC)C(=O)O; NMeL = CN[C@@H](CC(C)C)C(=O)O; NMeNle = CCCC[C@H](NC)C(=O)O; dNMeAbu = CC[C@@H](NC)C(=O)O; NMeNva = CCC[C@H](NC)C(=O)O; NMeV = CN[C@H](C(=O)O)C(C)C; d(β3hA) = C[C@@H](N)CC(=O)O; NMeS = CN[C@@H](CO)C(=O)O; Morpholide = C1CN(*)CCO1; NMeA = CN[C@@H](C)C(=O)O; Piperidide = C1CCN(*)CC1; Pyrrolidide = C1CCN(*)C1; X45 = FC(F)Oc1ccc(C*)cc1; Ac5c = NC1(C(=O)O)CCCC1; Aze = O=C(O)[C@@H]1CCN1; NEtG = CCNCC(=O)O; Sar = CNCC(=O)O; Propyl = CCC*

system: Human pancreatic cancer cell line AsPC-1; assay: Measurement of AsPC-1 cell growth inhibition (AsPC-1 CGI); format: cell-based; conditions: 96 h
Outline: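 AsPC-1 cells in 15% FBS RPMI-1640 were exposed to test compound for 96 hours at 37° C, with CellTiter-Glo as endpoint.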

Compound	IC50
CC[C@@H]1C(=O)NC2(CCCC2)C(=O)N(C)[C@@H](C2CCCC2)C(=O)N(C)[C@H](C(=O)N2CCCCC2)CC(=O)N(C)[C@@H](CC(C)C)C(=O)N[C@@H]([C@@H](C)CC)C(=O)N(C)CC(=O)N(C)CC(=O)N(C)[C@@H](CC2CCCCC2)C(=O)N(C)CC(=O)N[C@@H](CCc2ccc(C(F)(F)F)c(Cl)c2)C(=O)N1C [Compound 1439] ([NMeL]I[Sar][Sar][NMeCha][Sar][hPhe(3-Cl-4-CF3)][dNMeAbu][Ac5c][NMeGly(cPent)][NMeD]-Piperidide; lactam N-11)	100 to 500 nM
CC[C@H](C)[C@@H]1NC(=O)[C@H](CC(C)C)N(C)C(=O)C[C@@H](C(=O)N2CCCC2)N(C)C(=O)[C@H](C2CCCCC2)N(C)C(=O)C2(CCCC2)NC(=O)[C@H](Cc2cccnc2)N(C)C(=O)[C@H](CCc2ccc(C(F)(F)F)c(Cl)c2)NC(=O)CN(C)C(=O)[C@H](CC2CCCCC2)N(C)C(=O)CN(C)C(=O)CN(C)C1=O [Compound 1693] ([NMeL]I[Sar][Sar][NMeCha][Sar][hPhe(3-Cl-4-CF3)][NMe3Pal][Ac5c][NMeChg][NMeD]-Pyrrolidide; lactam N-11)	100 to 500 nM
CCCOC[C@H]1C(=O)N[C@@H]([C@@H](C)CC)C(=O)N(C)[C@@H](C)C(=O)N2CC[C@H]2C(=O)N(C)[C@@H](CC2CCCCC2)C(=O)N(C)CC(=O)N[C@@H](CCc2ccc(C(F)(F)F)c(Cl)c2)C(=O)N2CCC[C@H]2C(=O)NC2(CCCC2)C(=O)N(C)[C@@H](C(C)C)C(=O)N(C)[C@H](C(=O)N2CCCCC2)CC(=O)N1C [Compound 1763] ([NMeS](Propyl)I[NMeA][Aze][NMeCha][Sar][hPhe(3-Cl-4-CF3)]P[Ac5c][NMeV][NMeD]-Piperidide; lactam N-11)	100 to 500 nM
CO[C@H](C)[C@@H]1NC(=O)[C@H](CC(C)C)N(C)C(=O)C[C@@H](C(=O)N2CCCCC2)N(C)C(=O)[C@H](C(C)C)N(C)C(=O)C2(CCCC2)NC(=O)[C@@H]2CCCN2C(=O)[C@H](CCc2ccc(C(F)(F)F)c(Cl)c2)NC(=O)CN(C)C(=O)[C@H](CC2CCCCC2)N(C)C(=O)[C@@H]2CCN2C(=O)[C@H](C)N(C)C1=O [Compound 497] ([NMeL]T(Me)[NMeA][Aze][NMeCha][Sar][hPhe(3-Cl-4-CF3)]P[Ac5c][NMeV][NMeD]-Piperidide; lactam N-11)	100 to 500 nM
CC[C@H](C)[C@@H]1NC(=O)[C@H](CC(C)C)N(C)C(=O)C[C@@H](C(=O)N2CCCCC2)N(C)C(=O)[C@H](CC(C)C)N(C)C(=O)C2(CCCC2)NC(=O)[C@@H]2C[C@@H](OCc3ccc(OC(F)F)cc3)CN2C(=O)[C@H](CCc2ccc(C(F)(F)F)c(F)c2)NC(=O)CN(C)C(=O)[C@H](CC2CCCCC2)N(C)C(=O)CN(C)C(=O)CN(C)C1=O [Compound 2128] ([NMeL]I[Sar][Sar][NMeCha][Sar][hPhe(3-F,4-CF3)][Hyp](X45)[Ac5c][NMeL][NMeD]-Piperidide; lactam N-11)	> 500 nM
CC[C@H](C)[C@@H]1NC(=O)[C@H](CC(C)C)N(C)C(=O)C[C@@H](C(=O)N2CCCCC2)N(C)C(=O)[C@H](C(C)C)N(C)C(=O)C2(CCCC2)NC(=O)[C@@H]2CCCN2C(=O)[C@H](CCc2ccc(C(F)(F)F)c(Cl)c2)NC(=O)CN(C)C(=O)[C@H](CCCCC(F)F)N(C)C(=O)[C@@H]2CCN2C(=O)[C@H](C)N(C)C1=O [Compound 78] ([NMeL]I[NMeA][Aze][NMeNle(6-CHF2)][Sar][hPhe(3-Cl-4-CF3)]P[Ac5c][NMeV][NMeD]-Piperidide; lactam N-11)	100 to 500 nM
CC[C@H](C)[C@@H]1NC(=O)[C@H](CC(C)C)N(C)C(=O)C[C@@H](C)NC(=O)[C@H](C2CCCC2)N(C)C(=O)C2(CCCC2)NC(=O)[C@@H]2CCCN2C(=O)[C@H](CCc2ccc(C(F)(F)F)c(Cl)c2)NC(=O)CN(C)C(=O)[C@H](Cc2ccc(C)cc2)N(C)C(=O)[C@@H]2CCN2C(=O)[C@H](C)NC1=O [Compound 1331] (cyclo(A[Aze][NMePhe(4-Me)][Sar][hPhe(3-Cl-4-CF3)]P[Ac5c][NMeGly(cPent)][d(β3hA)][NMeL]I))	50 to 100 nM
CC[C@H](C)[C@@H]1NC(=O)[C@H](C2CCCCC2)N(C)C(=O)C[C@@H](C)NC(=O)[C@H](C(C)C)N(C)C(=O)C2(CCCC2)NC(=O)[C@@H]2CCCN2C(=O)[C@H](CCc2ccc(C(F)(F)F)c(Cl)c2)NC(=O)CN(C)C(=O)[C@H](CC2CCCCC2)N(C)C(=O)[C@@H]2CCN2C(=O)[C@H](C)N(C)C1=O [Compound 873] (cyclo([Ac5c][NMeV][d(β3hA)][NMeChg]I[NMeA][Aze][NMeCha][Sar][hPhe(3-Cl-4-CF3)]P))	100 to 500 nM
CCO[C@@H]1C[C@H]2C(=O)NC3(CCCC3)C(=O)N(C)[C@@H](C3CCCCC3)C(=O)N(C)[C@H](C)CC(=O)N(C)[C@@H](CC(C)C)C(=O)N[C@@H]([C@@H](C)CC)C(=O)N(C)[C@@H](C)C(=O)N3CC[C@H]3C(=O)N(C)[C@@H](Cc3ccc(C(F)(F)F)cc3)C(=O)N(C)CC(=O)N[C@@H](CCc3cc(F)c(C(F)(F)F)c(F)c3)C(=O)N2C1 [Compound 486] (cyclo([Ac5c][NMeChg][NMedβ3hAla][NMeL]I[NMeA][Aze][NMePhe(4-CF3)][Sar][hPhe(3,5-F2-4-CF3)][Hyp](Et)))	50 to 100 nM
CCC[C@H]1C(=O)N2CC[C@H]2C(=O)N(C)[C@@H](CC2CCCCC2)C(=O)N(C)CC(=O)N[C@@H](CCc2ccc(C(F)(F)F)c(Cl)c2)C(=O)N2CCC[C@H]2C(=O)NC2(CCCC2)C(=O)N(C)[C@@H](C(C)C)C(=O)N(C)[C@H](C(=O)N2CCCCC2)CC(=O)N(C)[C@@H](CC(C)C)C(=O)N[C@@H]([C@@H](C)CC)C(=O)N1C [Compound 1601] ([NMeL]I[NMeNva][Aze][NMeCha][Sar][hPhe(3-Cl-4-CF3)]P[Ac5c][NMeV][NMeD]-Piperidide; lactam N-11)	100 to 500 nM
CC[C@H](C)[C@@H]1NC(=O)[C@H](CC(C)C)N(C)C(=O)C[C@@H](C(=O)N2CCCC2)N(C)C(=O)[C@H]([C@@H](C)CC)N(C)C(=O)C2(CCCC2)NC(=O)[C@@H]2CCCN2C(=O)[C@H](CCc2ccc(C(F)(F)F)c(Cl)c2)NC(=O)CN(CC)C(=O)[C@H](Cc2ccc(C(F)(F)F)cc2)N(C)C(=O)[C@@H]2CCN2C(=O)[C@H](C)N(C)C1=O [Compound 1159] ([NMeL]I[NMeA][Aze][NMePhe(4-CF3)][NEtG][hPhe(3-Cl-4-CF3)]P[Ac5c][NMeI][NMeD]-Pyrrolidide; lactam N-11)	20 to 50 nM
CCCOC[C@H]1C(=O)N(C)CC(=O)N[C@@H](CCc2ccc(C(F)(F)F)c(Cl)c2)C(=O)N2CCC[C@H]2C(=O)NC2(CCCC2)C(=O)N(C)[C@@H](C2CCCCC2)C(=O)N(C)[C@H](C(=O)N2CCCCC2)CC(=O)N(C)[C@@H](CC(C)C)C(=O)N[C@@H]([C@@H](C)CC)C(=O)N(C)CC(=O)N(C)CC(=O)N1C [Compound 1805, (3S,9S,18S,21S,25S,28S,34S)-3-[2-[3-chloro-4-(trifluoromethyl)phenyl]ethyl]-28-cyclohexyl-21-isobutyl-7,10,13,16,22,26,29-heptamethyl-18-[(1S)-1-methylpropyl]-25-(piperidine-1-carbonyl)-9-(propoxymethyl)spiro[1,4,7,10,13,16,19,22,26,29,32-undecazabicyclo[32.3.0]heptatriacontane-31,1′-cyclopentane]-2,5,8,11,14,17,20,23,27,30,33-undecone] ([NMeL]I[Sar][Sar][NMeS](Propyl)[Sar][hPhe(3-Cl-4-CF3)]P[Ac5c][NMeChg][NMeD]-Piperidide; lactam N-11)	50 to 100 nM
CC[C@H](C)[C@@H]1NC(=O)[C@H](C)N(C)C(=O)C[C@@H](C(=O)N2CCCCC2)N(C)C(=O)[C@H](C2CCCCC2)N(C)C(=O)C2(CCCC2)NC(=O)[C@H](Cc2cccnc2)N(C)C(=O)[C@H](CCc2ccc(C(F)(F)F)c(Cl)c2)NC(=O)CN(C)C(=O)[C@H](CC2CCCCC2)N(C)C(=O)CN(C)C(=O)CN(C)C1=O [Compound 1012] ([NMeA]I[Sar][Sar][NMeCha][Sar][hPhe(3-Cl-4-CF3)][NMe3Pal][Ac5c][NMeChg][NMeD]-Piperidide; lactam N-11)	100 to 500 nM
C#CCC[C@H]1C(=O)N[C@@H]([C@@H](C)CC)C(=O)N(C)[C@@H](C)C(=O)N2CC[C@H]2C(=O)N(C)[C@@H](Cc2ccc(I)cc2)C(=O)N(C)CC(=O)N[C@@H](CCc2ccc(C(F)(F)F)c(Cl)c2)C(=O)N2CCC[C@H]2C(=O)NC2(CCCC2)C(=O)N(C)[C@@H](C2CCCCC2)C(=O)N(C)[C@H](C)CC(=O)N1C [Compound 961] (cyclo([Ac5c][NMeChg][NMedβ3hAla][NMeHpra]I[NMeA][Aze][NMePhe(4-I)][Sar][hPhe(3-Cl-4-CF3)]P))	100 to 500 nM
CCCC[C@H]1C(=O)N(C)[C@H](C(=O)N2CCCCC2)CC(=O)N(C)[C@@H](CC(C)C)C(=O)N[C@@H]([C@@H](C)CC)C(=O)N(C)[C@@H](C)C(=O)N2CC[C@H]2C(=O)N(C)[C@@H](CC2CCCCC2)C(=O)N(C)CC(=O)N[C@@H](CCc2ccc(C(F)(F)F)c(Cl)c2)C(=O)N2CCC[C@H]2C(=O)NC2(CCCC2)C(=O)N1C [Compound 1859] ([NMeL]I[NMeA][Aze][NMeCha][Sar][hPhe(3-Cl-4-CF3)]P[Ac5c][NMeNle][NMeD]-Piperidide; lactam N-11)	100 to 500 nM
CC[C@H](C)[C@@H]1NC(=O)[C@H](CC(C)C)N(C)C(=O)C[C@@H](C(=O)N2CCCCC2)N(C)C(=O)[C@H](CC(C)C)N(C)C(=O)C2(CCCC2)NC(=O)[C@@H]2C[C@H](OCc3ccccc3C)CN2C(=O)[C@H](CCc2ccc(C(F)(F)F)c(F)c2)NC(=O)CN(C)C(=O)[C@H](CC2CCCCC2)N(C)C(=O)CN(C)C(=O)CN(C)C1=O [Compound 2137] ([NMeL]I[Sar][Sar][NMeCha][Sar][hPhe(3-F,4-CF3)][cisHyp](oXylylene)[Ac5c][NMeL][NMeD]-Piperidide; lactam N-11)	> 500 nM
CCCOC[C@H]1C(=O)N(C)CC(=O)N[C@@H](CCc2ccc(C(F)(F)F)c(F)c2)C(=O)N2CCC[C@H]2C(=O)NC2(CCCC2)C(=O)N(C)[C@@H]([C@@H](C)CC)C(=O)N(C)[C@H](C(=O)N2CCOCC2)CC(=O)N(C)[C@@H](CC(C)C)C(=O)N[C@@H]([C@@H](C)CC)C(=O)N(C)[C@@H](C)C(=O)N2CC[C@H]2C(=O)N1C [Compound 827] ([NMeL]I[NMeA][Aze][NMeS](Propyl)[Sar][hPhe(3-F,4-CF3)]P[Ac5c][NMeI][NMeD]-Morpholide; lactam N-11)	20 to 50 nM
